Laboratory results published in the SangsterLogP compilation.

Experiments:
[1] = method code SF-AS, from DOI: 10.1016/s0021-9673(00)94589-8, PMID: 3356765

Structure (SMILES) | logP [1] | logP
COC(=O)Nc1cccc([N+](=O)[O-])c1 | 1.95 | –
COC(=O)Nc1cccc(F)c1 | – | 2.17
COC(=O)Nc1cccc(Cl)c1 | – | 2.59
CCOc1ccc(NC(=O)OC(CBr)CBr)cc1OCC | – | 3.39
CCCCOC(=O)Nc1ccc(OCC)c(OCC)c1 | – | 3.35
CCOc1ccc(NC(=O)OC(C)C)cc1OCC | 2.82 | –
COC(=O)Nc1cccc(C#N)c1 | 1.77 | –
CCCOC(=O)Nc1ccc(OCC)c(OCC)c1 | – | 2.97
CCOc1ccccc1NC(=O)OC | 2.4 | –
CCc1cccc(NC(=O)OC)c1 | 2.72 | –
COC(=O)Nc1ccccc1Br | 2.25 | –
C#CCOC(=O)Nc1ccc(OCC)c(OCC)c1 | 2.68 | –
COC(=O)Nc1ccc(F)cc1 | – | 2.02
COC(=O)Nc1ccc(C#N)cc1 | – | 1.67
C=CCOC(=O)Nc1ccc(OCC)c(OCC)c1 | – | 2.74
COC(=O)Nc1cccc(C(F)(F)F)c1 | 2.74 | –
CCOc1ccc(NC(=O)OC2CCCC2)cc1OCC | – | 3.41
COC(=O)Nc1cccc(OC)c1 | 1.92 | –
COC(=O)Nc1ccccc1OC | 1.84 | –
CCOc1ccc(NC(=O)OCC(C)C)cc1OCC | – | 3.33
COC(=O)Nc1ccc(Cl)cc1 | – | 2.52
COC(=O)Nc1ccccc1Cl | – | 2.19

Structure (SMILES) | logP [1] | logP
COC(=O)Nc1ccccc1I | – | 2.36
COC(=O)Nc1ccccc1C | 1.69 | –
COC(=O)Nc1cccc(C)c1 | 2.22 | –
CCOc1ccc(NC(=O)OC)cc1 | 2.11 | –
CCOc1ccc(NC(=O)OCCC#N)cc1OCC | 2.13 | –
CCOc1ccc(NC(=O)OCc2ccccc2)cc1OCC | – | 3.32
CCOC(=O)Nc1ccc(OCC)c(OCC)c1 | – | 2.58
COC(=O)Nc1ccccc1C(F)(F)F | 2.09 | –
COC(=O)Nc1cccc(I)c1 | – | 2.88
COC(=O)Nc1cccc(C(C)=O)c1 | 1.63 | –
CCOc1cccc(NC(=O)OC)c1 | – | 2.28
COC(=O)Nc1ccc(OC)cc1 | – | 1.77
CCOc1ccc(NC(=O)OCCOC)cc1OCC | – | 2.22
COC(=O)Nc1ccc(C)cc1 | 2.27 | –
CCc1ccc(NC(=O)OC)cc1 | 2.72 | –
COC(=O)Nc1ccccc1F | 1.66 | –
COC(=O)Nc1ccc([N+](=O)[O-])cc1 | – | 1.98
CCOc1ccc(NC(=O)OC)cc1OCC | – | 2.2
CCCCc1ccc(NC(=O)OC)cc1 | 3.68 | –
COC(=O)Nc1ccccc1[N+](=O)[O-] | 2.07 | –
COC(=O)Nc1cccc(Br)c1 | – | 2.71
